Values of other authors as cited in patent US20080200520A1, “Iron Modulators” (BTG INTERNATIONAL LIMITED, priority 2005, published 2008).
Counter-ions that a name gives are not always drawn.

Key:
[1] = comparative compounds, commercial lots
[2] = comparative compounds, commercial lots; solvent in which soluble
[3] = comparative compounds, commercial lots; remark: listed apart in the source
mice = conditions: oral treatment

Structure (SMILES)	Potential Hazards [1]	Solubility [2]	Stability [3]	protection from the effects of MPTP (mice)
Oc1c(I)cc(Cl)c2cccnc12 [Clioquinol]	harmful. Sensitisation by inhalation and skin contact. Causes severe irritation. Readily absorbed through skin. Target organs: eyes and nerves	DMSO	stable	protect mice from the effects of MPTP
Cc1c(O)c(=O)ccn1C [Deferiprone]		water	stable	
CC(=O)N(O)CCCCCNC(=O)CCC(=O)N(O)CCCCCNC(=O)CCC(=O)N(O)CCCCCN [Desferrioxamine Mesylate]	none	water	stable	
